Reference: patent publication US20150031760A1, “PHARMACEUTICAL COMPOSITION FOR PREVENTING OR TREATING NERVOUS SYSTEM DISORDERS COMPRISING SULFURETIN OR PHARMACEUTICALLY ACCEPTABLE SALT THEREOF” (Research and Business Foundation SUNGKYUNKWAN UNIVERSITY, priority 2010, published 2015)
No end group written: not given here.

Columns and labels:
[1] = MTT (cell viability) test, induced cell death in SH-SY5Y cells; conditions: human
Protocol: (§1) The incubator was maintained at a temperature of 37° C., and a mixed gas of 95% air and 5% CO2 was continuously supplied thereto to provide suitable conditions for cell culture. The cells were cultured in a 6-well plate or a 96-well plate at each of densities of 1×10^6 and 2×10^4 cells/well 24 hours before the experiment. […] Sulfuretin was used in ethanol and used at a final concentration of 0.1% or less.
To measure cell viability, an MTT reduction assay was used. An MTT solution was added to each well of the 96-well plate (in which the cells have been cultured) to a final concentration of 0.5 mg/ml. The plate was incubated in an incubator for 2 hours, and the medium and the MIT solution were removed, after which DMSO was added thereto and stirred. When DMSO was completely dissolved, the UV absorbance at 540 nm was measured using a microplate reader (Molecular device, USA).
The measured absorbance was substituted into the following equation to calculate cell viability:
Cell viability (%)=[(O.D. of control−O.D. of test group)/O.D. of control]×100

[2] = MTT (cell viability) test, corticosterone-induced cell death in PC12 cells; assay type: cell-based; conditions: rat
Protocol: For the experiment shown in FIG. 3, PC12 cells were cultured in DMEM medium (Hyclone, Thermo, USA) containing 10% FBS, 5% horse serum and antibiotics (Gibco-BRL, USA). […] The concentration of corticosterone was determined to be 400 μM after evaluation of cell viability.

SH-SY5Y cells [3] = test: Inhibition of intracellular [Ca2+] influx (Fura-2-AM fluorescence); assay type: cell-based, human; conditions: hydrogen peroxide alone, 30 minutes; normal control 281 nM or less
Protocol: as §1
In order to measure inhibitory effects on intracellular [Ca^2+] influx caused by oxidative stress, cells were labeled with Fura-2-AM fluorescence, and quantitative analysis was carried out using a fluorescence meter. Specifically, 10 μl of 5 μM Fura-2-AM was added to each well of the 6-well plate (in which the cells have been cultured) and then allowed to react for 30 minutes. Herein, Fura-2-AM in the incubator was covered with a silver foil such that it would not be exposed to light. After completion of the incubation, the plate was pretreated with sulfuretin for 30 minutes, and then reacted with hydrogen peroxide for 30 minutes to induce the intracellular influx of [Ca^2+]. Then, the cells that reacted with the Fura-2-AM fluorescent substance were washed twice with cold HEPES and detached with HEPES. Then, the cells were centrifuged at 400 g for 3 minutes. The supernatant was removed carefully, stirred weakly with 0.5 ml of HEPES buffer, and then 150 μl was dispensed into each well of a fresh 96-well plate. The fluorescence of the sample dispensed into the fresh 96-well plate was measured at an excitation wavelength of […] and an emission wavelength of 520 nm using a fluorescence meter (Perkinelmer, USA).
The measured value was substituted into the following equation to calculate intracellular [Ca^2+] nM: […]

PARP = test: Western blot, PARP expression; assay type: cell-based, human; conditions: SH-SY5Y cells; hydrogen peroxide alone, 24 hours; normal control 100%
Protocol: as §1
(§2) In order to identify the effect of sulfuretin on the expression of proteins related to dementia, Alzheimer's disease, Parkinson's disease and strokes, a Western blot test was carried out.
(§3) After 24 hours, the supernatant of each well was collected and centrifuged at 400 g for 3 minutes, and the cells were washed with cold PBS and lysed with 100 μl of T-PER lysis buffer (Thermo, USA) for 30 minutes. The lysates were centrifuged at 10000 g at 4° C. for 15 minutes, and the supernatants were stored at […] until use as test samples. Proteins were quantitatively analyzed using a BCA assay kit (Thermo, USA) and separated within 8.5-12% SDS gel and then transferred to PVDF membranes. To examine the expression of the proteins, the development of fluorescence was analyzed by enhanced chemiluminescence (ECL). Specifically, the membrane was blocked with 5% skimmed non-fat milk for 1 hour and labeled with the primary antibodies, PARP, caspase-3, phospho-p38, phospho-JNK and β-actin at 4° C. overnight. Then, the membrane was washed three times with Tris-tween buffered saline (TTBS), and then labeled with horseradish peroxidase (HRP)-conjugated anti-rabbit and anti-mouse secondary antibodies at room temperature for 1 hour. Then, the membrane was washed five times with TTBS for 10 minutes. The washed film was developed by ECL using x-ray films, and concentrations were quantitatively analyzed using quantitative analysis program (Fujifilm, Japan).

phospho-p38 = test: Western blot, phospho-p38 expression; assay type: cell-based, human; conditions: SH-SY5Y cells; hydrogen peroxide alone, 24 hours; normal control 100%
Protocol: as §1, §2, §3

SH-SY5Y cells [4] = test: LDH secretion (cytotoxicity) test; assay type: cell-based, human
Protocol: as §1
To measure LDH secretion (cytotoxicity), an LDH cytotoxicity assay kit was used. 50 μl of the medium was taken from each well of the 96-well plate (in which the cells have been cultured) and dispensed into each well of a fresh 96-well plate, and 50 μl of a reaction reagent was added to each well, after which the plate was shielded from light. The plate was incubated in an incubator for 30 minutes, and the UV absorbance at 490 nm was measured using a microplate reader (Molecular device, USA).
The measured absorbance was substituted into the following equation to calculate LDH secretion:
LDH secretion (%)=(LDH secretion O.D. in medium/total LDH secretion O.D.)×100

SH-SY5Y cells [5] = test: Inhibition of ROS production (DCFH-DA fluorescence); assay type: cell-based, human; conditions: hydrogen peroxide alone, 30 minutes; control 102% or less
Protocol: as §1
In order to measure ROS elimination activity, cells were labeled with DCFH-DA fluorescence, and quantitative analysis was performed using a fluorescence meter.
Specifically, the 6-well plate in which the cells have been cultured was pretreated with sulfuretin for 2 hours, and then reacted with hydrogen peroxide for 30 minutes to induce ROS. Then, 10 μl of 10 mM DCFH-DA was added to the plate and allowed to react with the cells for 30 minutes. Herein, DCFH-DA in the incubator was covered with a foil such that it would not be exposed to light. The cells that reacted with the DCFH-DA fluorescent substance were detached using cold PBS and centrifuged at 400 g for 3 minutes. The centrifugation process was repeated twice to wash the fluorescent substance. The washed cells were briefly stirred with 1 ml of PBS, and 100 μl was dispensed into each of a fresh 96-well plate. Then, fluorescence was measured at an excitation wavelength of 488 nm and an emission wavelength of 515 nm using a fluorescence meter (Perkinelmer, USA).
The measured value was substituted into the following equation to calculate ROS production:
ROS production (%)=[(O.D. of control−O.D. of test group)/O.D. of control]×100

phospho-JNK = test: Western blot, phospho-JNK expression; assay type: cell-based, human; conditions: SH-SY5Y cells; hydrogen peroxide alone, 24 hours; normal control 100%
Protocol: as §1, §2, §3

SH-SY5Y cells [6] = test: Inhibition of mitochondrial membrane potential (MMP) damage (rhodamine-123); assay type: cell-based, human; conditions: hydrogen peroxide alone, 30 minutes; normal control 99% or less
Protocol: as §1
In order to measure the inhibition of MMP damage, cells were labeled with rhodamine-123 fluorescence, and quantitative analysis was performed using a fluorescence meter. Specifically, the 6-well plate in which the cells have been cultured was pretreated with sulfuretin for 30 minutes and then reacted with hydrogen peroxide for 30 minutes to induce MMP damage. Then, 10 μl of 10 μM rhodamine-123 was added to each well of the plate and allowed to react for 30 minutes. Herein, rhodamine-123 in the incubator was covered with a silver foil such that it would not be exposed to light. The cells that reacted with the rhodamine-123 fluorescent substance were detached with cold PBS and centrifuged at 400 g for 3 minutes. The centrifugation process was repeated twice to wash the fluorescent substance. The washed cells were stirred briefly with 0.5 ml of PBS, and 100 μl was dispensed into each well of a fresh 96-well plate. The fluorescence of the cells was measured at an excitation wavelength of 480 nm and an emission wavelength of 530 nm using a fluorescence meter (Perkinelmer, USA).
The measured fluorescence was substituted into the following equation to calculate ΔΨm:
ΔΨm(%)=[(O.D. of control−O.D. of test group)/O.D. of control]×100

caspase-3 = test: Western blot, caspase-3 expression; assay type: cell-based, human; conditions: SH-SY5Y cells; hydrogen peroxide alone, 24 hours; normal control 100%
Protocol: as §1, §2, §3

mice [7] = test: Scopolamine-induced learning and memory deficits, step-through passive avoidance test; assay type: in vivo; conditions: scopolamine 0.5 mg/kg, i.p. (p<0.05)
Protocol: (§4) Male ICR mice (4-weeks-old, 18-20 g) were purchased from Koatech Co., Ltd. (Pyongtaek, Korea). Mice were housed 10 per cage, allowed access to water and food ad libitum, and maintained in constant temperature (23±1° C.) and humidity (55±5%) conditions under a 12 hour light/dark cycle (lights on 07:00 to 19:00 h). All experiments were conducted in accord with the NIH Guide for the Care and Use of Laboratory Animals and with the approval of the Institutional Animal Care and Use Committee of Sungkyunkwan University.
Assessment of the training or test trials of the passive avoidance test was carried out in identical illuminated and non-illuminated compartments (12×10×12 cm) containing 2-mm stainless steel rods spaced 0.5 cm apart. A 50 W lamp positioned 1 meter above both chambers illuminated the apparatuses. Briefly, the mice underwent two separate trials, a training trial and a test trial 24 hours later. For the training trial, mice were initially placed in the clear chamber. When they entered the dark chamber, the door closed and a 3-sec electrical foot shock (0.5 mA) was delivered through the stainless steel rods. One hour before each training trial, mice were given sulfretin (0.25, 0.5, or 1 mg/kg, p.o.). After 30 minutes, memory impairment was induced by administering scopolamine (0.5 mg/kg, i.p.). Twenty-four hours after the training trial, mice were placed in the illuminated chamber for the test trial. The time for the mouse to enter the dark compartment after the door opening was defined as latency for both training and test trials. Latencies were recorded for up to 300 s. To avoid a ceiling effect in unimpaired animals, sulfuretin alone was administered 1 hour before the training trial without scopolamine treatment. The intensity of electrical foot shock was set at 0.25 mA for 3 seconds. This lower intensity shock allowed for a behavioral window through which to detect any enhancing effect of sulfuretin.

mice [8] = test: Scopolamine-induced cognitive impairment, spontaneous alternation behavior Y-maze test; assay type: in vivo; conditions: scopolamine 0.5 mg/kg, i.p., compared with the control group (p<0.05)
Protocol: as §4
The spontaneous alternation behavior was measured by Y-maze which consists of a horizontal maze (30 cm long and 5 cm wide, with walls 12 cm high) with three arms (labeled A, B, and C). The maze floor and walls are constructed of dark grey, polyvinyl plastic. Mice were initially placed within one arm, and the number of alternations (i.e., consecutive entry sequences of ABC, CAB, or BCA but not BAB) and the number of arm entries were manually recorded for each mouse over an 8 minutes period. One hour before each test, the mice were given sulfuretin (0.25, 0.5, or 1 mg/kg, p.o.). After 30 minutes, memory impairment was induced by administering scopolamine (0.5 mg/kg, i.p.). […] The percentage alternation was calculated according to the following equation: Percentage alternation=[(Number of alternations)/(Total arm entries−2)]×100. […]

Tau = test: Western blot, amyloid beta25-35-induced hyperphosphorylation of Tau; assay type: cell-based, human; conditions: SH-SY5Y cells; 20 μM amyloid beta25-35 alone, compared with control samples (p<0.05 and p<0.01)
SH-SY5Y cells [9] = test: LDH assay, amyloid beta25-35-induced cytotoxicity; assay type: cell-based, human; conditions: 20 μM amyloid beta25-35 alone for 24 h, versus control cells (p<0.001)

Molecule `NCCc1cc(O)c(O)cc1O` [6-hydroxydopamine, reference compound] has a viability at 200 µM [1] of no less than 69%.

Work on `C[C@]12C[C@H](O)[C@H]3[C@@H](CCC4=CC(=O)CC[C@@]43C)[C@@H]1CC[C@@H]2C(=O)CO` [corticosterone, Corticosterone, reference compound] yielded a viability at 400 µM [2] of no less than 55%.

For `OO` [hydrogen peroxide, reference compound], the “intracellular [Ca2+] influx” value (SH-SY5Y cells [3]) was no less than 600 nM, the viability at 400 µM ([1]; cell viability) was no less than 55% and the PARP expression (PARP) was no more than 38%. The phospho-p38 expression (phospho-p38) was no less than 133%, the LDH secretion (SH-SY5Y cells [4]; hydrogen peroxide alone, normal control 11% or less) was no less than 80% and the ROS production (SH-SY5Y cells [5]) was no less than 148%. For the same molecule, the phospho-JNK expression (phospho-JNK) was no less than 173%, the “MMP (ΔΨm)” value (SH-SY5Y cells [6]) was no more than 55% and the caspase-3 expression (caspase-3) was no more than 40%.

For `CN1[C@@H]2C[C@@H](OC(=O)[C@H](CO)c3ccccc3)C[C@H]1[C@@H]1O[C@@H]12` [scopolamine, reference compound], the “step-through latency time (test trial)” value (mice [7]) was “decreased” and the spontaneous alternation behavior (mice [8]) was “significantly decreased”.

For “GSNKGAIIGLM [beta-amyloid, amyloid-beta 25-35 fragment, reference compound]”, the LDH secretion (SH-SY5Y cells [4]; beta-amyloid alone, normal control 12% or less) was no less than 15%, the “phosphorylation of Tau proteins” value (Tau) was “rapidly increased” and the “LDH activity (LDH release)” value (SH-SY5Y cells [9]) was “increased significantly”.
